From US7220563B2 (priority 2002, dated 2007)

Tested on: recombinant GAO
Format: biochemical

Compound | effect on activation of the recombinant GAO | other results
O=S(=O)([O-])[O-].[Cu+2] [CuSO4, copper sulfate] |  | concentration sufficient to activate recombinant GAO: 0.1 mM; effect on GAO activity: slightly inhibited; preferred concentration for activating crude enzyme solution: 0.4 mM
O=C(O)CN(CCN(CC(=O)O)CC(=O)O)CC(=O)O [EDTA] | did not affect activation | 
cobalt | did not affect activation | 
iron | did not affect activation | 
manganese | did not affect activation | 
nickel | did not affect activation | 
